Test results: patent US9205174B2, “Bone graft substitute in the form of an implantable three-dimensional scaffold and method of manufacturing same” (Mathys AG Bettlach, priority 2010, dated 2015)

Experiments:
[1] = for expected (added) amount beyond which additional salt does not load the block / loading efficiency drastically decreases: 0.50 g/mL solution, 14×14 mm β-TCP cylinder, dried at 95° C.
Method: A 2^2 factorial design of experiments with three repeats was performed with the following factors: Factor A: CaCl2 concentration (0.25 or 0.50 g/mL); Factor B: Liquid amount (3.5 or 7.0 mL). Each of the 14×14 mm cylinders was placed standing in a snap cap flask.
The solution was then slowly added to allow impregnation through capillarity. The cylinder top was always protruding out of the solution. The samples were then inserted into the drying cupboard tempered at 60° C. The ventilation of the drying cupboard was set at its maximum.
The weight of the flask+solution+samples was measured at regular interval to determine the point at which constant weight was reached. […] Therefore, these 9 samples were removed from the flask and the weight was determined without flask. The 3 samples made with 7 mL 0.50 g/mL solution were kept for a longer time. The drying temperature was increased to 80° C.
Each of the 14×14 mm cylinders was placed standing in a snap cap flask. The solution was then slowly injected at the bottom of the snap-cap flask to allow impregnation through capillarity. 6 different volumes were injected: 1.8, 2.7, 3.6, 4.5, 5.6 and 6.3 mL.
Two cylinders were prepared for each solution volume. The cylinder top was always protruding out of the solution. The samples were then inserted into the drying cupboard tempered at 95° C. The ventilation of the drying cupboard was set at its maximum.
The weight of the flask+solution+samples was measured at regular interval to determine the point at which constant weight was reached. The sample weight was determined to assess how much di-potassium hydrogen phosphate was present in the block pores.
Each of the 14×14 mm cylinders was placed standing in a snap cap flask. The solution (kept at 95° C.) was then slowly injected at the bottom of the snap-cap flask to allow impregnation through capillarity. […]
The weight of the flask+solution+samples was measured at regular interval to determine the point at which constant weight was reached. […] The sample weight was determined to assess how much di-potassium hydrogen phosphate was present in the block pores.

[2] = Release test of loaded β-TCP blocks in 1 L deionized water, weight loss after drying; assay type: physicochemical; conditions: for dissolution rate DRD relative to dissolution rate DRS of β-TCP: from weight losses; for release rate (in words): from loaded β-TCP blocks in 1 L deionized water; for amount released: 50 RPM
Method: Each sample was then placed into a small porous cage produced by joining together two BD Falcon filters (Mesh size: 70 micrometers). The cage was lowered into a 1 L deionized water. Stirring was performed with a large magnetic bar (6 cm in length) at 50 RPM. The samples were removed from the solution after 1 h or 3 h (1 sample per time and per composition). The samples were then dried at 95° C. and weighed to determine the amount of Na2HPO4.2H2O released during the test.
Each sample was then placed into a small porous cage produced by joining together two BD Falcon filters (Mesh size: 70 micrometers). The cage was lowered into a 1 L deionized water. Stirring was performed with a large magnetic bar (6 cm in length) at 50 RPM. The samples were removed from the solution after 10 min, 1 h or 6 h (1 samples per time and per composition). The samples were then dried at 95° C. and weighed to determine the amount of CaCl2 released during the incubation.

| Compound | expected (added) amount beyond which additional salt does not load the block / loading efficiency drastically decreases [1] | dissolution rate DRD relative to dissolution rate DRS of β-TCP ([2]; deionized water) | release rate (in words) [2] | amount released ([2]; Example 4, after 1 h, deionized water) | state of samples after release ([2]; Example 4, at 6 h, deionized water) | amount released ([2]; Example 4, within 10 minutes, deionized water) | loading efficiency ([1]; Example 1, porous β-TCP blocks, 7 mL of 0.25 g/mL or 3.5 mL of 0.50 g/mL solution, dried at 60° C.) [%] |
| --- | --- | --- | --- | --- | --- | --- | --- |
| O=P([O-])([O-])O.[K+].[K+] [K2HPO4, di-potassium hydrogen phosphate] | ≈ 2.5 g |  |  |  |  |  |  |
| O=P([O-])([O-])O.[Na+].[Na+] [Na2HPO4.2H2O, di-sodium hydrogen phosphate] | ~1.35 g | two order of magnitude larger | relatively slowly |  |  |  |  |
| [Ca+2].[Cl-].[Cl-] [calcium chloride] |  | more than 100 times | very fast | 80-85% | free of calcium chloride | roughly 50% | ~84 |
